Test results taken from paper PMC2935964, “Selective delivery of 2-hydroxy APA to Trypanosoma brucei using the melamine motif” (Bioorganic & Medicinal Chemistry Letters, 2010).
Like-named read-outs stand apart in the source and are kept apart here.

Tests used:
[1] = test system: T. brucei brucei wild type; assay: In vitro activity against T. brucei brucei wild type (P2 transporter proficient); format: cell-based, Trypanosoma brucei brucei; settings: for EC50: Trypanosoma brucei, read-out: T. brucei brucei EC50 Wild type
Protocol: (§1) Compounds were tested against two T. brucei lines in vitro. The T. brucei brucei wild type that is proficient in the P2 transporter and a TbAT1 knockout line lacking the P2 transporter. This TbAT1 knockout line has been described previously.[27]

rat liver ODC = test system: rat liver ODC; set-up: method as in PMID 1573631; settings: previously reported; read-out: inhibition of rat liver ODC; cited from earlier work
T. brucei ODC = T. brucei ODC (Trypanosoma brucei brucei, UniProt P07805); assay: Inhibition of T. brucei ODC (previously described assay); format: biochemical
[2] = test system: T. brucei brucei TbAT1 KO; assay: In vitro activity against TbAT1 knockout line lacking the P2 transporter; format: cell-based, Trypanosoma brucei brucei; settings: for EC50: Trypanosoma brucei, read-out: T. brucei brucei EC50 TbAT1 KO; for Resistance factor (EC50 KO/EC50 w.t.): ratio TbAT1 KO vs wild type
Protocol: as §1

[3] = wild type, P2 proficient, NA = no activity at 100 μM

Chain of T. brucei ODC (P07805 whole entry): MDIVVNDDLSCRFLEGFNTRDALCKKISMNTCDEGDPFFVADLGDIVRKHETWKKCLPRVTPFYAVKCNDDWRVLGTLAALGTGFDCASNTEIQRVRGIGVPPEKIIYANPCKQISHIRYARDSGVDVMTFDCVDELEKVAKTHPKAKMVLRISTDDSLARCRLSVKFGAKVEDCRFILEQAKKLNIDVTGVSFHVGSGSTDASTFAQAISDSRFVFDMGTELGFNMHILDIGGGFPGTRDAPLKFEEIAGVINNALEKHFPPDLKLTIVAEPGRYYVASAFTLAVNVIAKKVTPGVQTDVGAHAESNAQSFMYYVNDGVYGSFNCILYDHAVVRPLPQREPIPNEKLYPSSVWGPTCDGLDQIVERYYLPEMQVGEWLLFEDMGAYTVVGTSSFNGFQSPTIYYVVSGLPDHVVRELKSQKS

| SMILES | EC50 [1] [µM] | T. brucei brucei EC50 Wild type [1, 3] | IC50 (rat liver ODC) [µM] | IC50 (T. brucei ODC) [µM] | EC50 [2] [µM] | Resistance factor (EC50 KO/EC50 w.t.) [2] | EC50 [1, 3] [µM] | melting point [°C] |
| --- | --- | --- | --- | --- | --- | --- | --- | --- |
| Cl.NCCCON [Compound 3, 3-(aminooxy)propanamine, reference compound] | > 100 | inactive | 0.035 | 0.022 ± 0.007 | – | – | – | – |
| NCC(O)CON (centres unmarked) [Compound 7, 2-hydroxy APA] | > 100 | – | 0.039 | 0.048 ± 0.009 | – | – | – | – |
| CC(C)(C)OC(=O)NCC(CONC(=O)OC(C)(C)C)OC(=O)CCNc1nc(N)nc(N)n1 (centres unmarked) [Compound 10b] | 77 | – | – | – | 40 | 0.5 | – | – |
| Cl.Cl.NCC(CON)OC(=O)CNc1nc(N)nc(N)n1 (centres unmarked) [Compound 11a] | – | – | – | – | – | – | > 100 | 150 to 170 |
| Cl.Cl.NCC(CON)OC(=O)CCNc1nc(N)nc(N)n1 (centres unmarked) [Compound 11b] | – | – | – | – | – | – | > 100 | 150 to 170 |
| CC(Nc1nc(N)nc(N)n1)C(=O)OC(CN)CON.Cl.Cl (centres unmarked) [Compound 11c] | – | – | – | – | – | >3 | 29 | 160 to 180 |
| Cl.Cl.NCC(CON)OC(=O)CCCNc1nc(N)nc(N)n1 (centres unmarked) [Compound 11d] | – | – | – | – | 288 | 2.5 | 113 | – |
